Experimental data as given in ChEMBL document CHEMBL2074284, “Transport of ochratoxin A by renal multispecific organic anion transporter 1” (J Pharmacol Exp Ther, 1999).

Assays:
[1] = biological target: T1, Solute carrier family 22 member 6 (Rattus norvegicus, UniProt O35956); test: TP_TRANSPORTER: inhibition of Ochratoxin A uptake (OTA: 1 uM, Citrinin: 200 uM) in Xenopus laevis oocytes; assay type: functional, cell-based; conditions: oocyte
T1 sequence (O35956 whole entry): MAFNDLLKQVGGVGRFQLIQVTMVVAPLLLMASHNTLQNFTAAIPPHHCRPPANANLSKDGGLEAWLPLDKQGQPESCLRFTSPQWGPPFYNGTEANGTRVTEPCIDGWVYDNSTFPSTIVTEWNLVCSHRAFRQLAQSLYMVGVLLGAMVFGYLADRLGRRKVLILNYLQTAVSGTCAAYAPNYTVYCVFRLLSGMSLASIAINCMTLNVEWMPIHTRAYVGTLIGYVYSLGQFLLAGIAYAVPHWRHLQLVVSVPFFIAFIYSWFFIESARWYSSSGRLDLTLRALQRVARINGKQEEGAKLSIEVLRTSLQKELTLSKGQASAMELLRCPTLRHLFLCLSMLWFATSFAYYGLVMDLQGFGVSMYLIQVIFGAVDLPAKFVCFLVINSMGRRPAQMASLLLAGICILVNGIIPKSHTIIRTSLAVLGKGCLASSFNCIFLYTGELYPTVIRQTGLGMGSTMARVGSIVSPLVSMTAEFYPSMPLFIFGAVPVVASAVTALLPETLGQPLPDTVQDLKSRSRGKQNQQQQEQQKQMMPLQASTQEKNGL

[2] = biological target: T1, Solute carrier family 22 member 6; test: TP_TRANSPORTER: inhibition of Ochratoxin A uptake (OTA: 1 uM, Aspartame: 1000 uM) in Xenopus laevis oocytes; assay type: functional, cell-based; conditions: oocyte

Row | Compound | Activity [1] | Activity [2]
1 | CC1=C2C(=CO[C@H](C)[C@H]2C)C(O)=C(C(=O)O)C1=O [CITRININ] | inhibitor [(at a rough estimate) 20 % of control] | 
2 | COC(=O)[C@H](Cc1ccccc1)NC(=O)[C@@H](N)CC(=O)O |  | is not an inhibitor [-]
